Measured values as given in patent US20080081825A1, “Nitrogen-Containing Heterocyclic Compounds and Medicinal Use Thereof” (priority 2004, published 2008).

What was measured:
[1] = biological target: recombinant human p38α MAP kinase (Homo sapiens, UniProt Q16539); assay: Study on p38α MAP kinase inhibitory activity (ATF-2 phosphorylation, Alpha Screen); type: biochemical; conditions: ATF2 substrate, ATP 90 μmol/L
Experimental: Using activation transcription factor-2 (hereinafter abbreviated as ATF-2) which is a substrate for p38α MAP kinase, the inhibitory action of the compounds of the present invention was investigated on the phosphorylation by a recombinant human p38α MAP kinase.
A kinase buffer (25 mM Tris-HCl (pH 7.5), 5 mM […], 2 mM dithiothreitol, 0.1 mM Na3VO4, 10 mM MgCl2) containing a recombinant human p38α MAP kinase was added to a 384-well plate (5 μL) (6.25 ng protein/well) for fluorescence measurement. After addition of a kinase buffer (5 μL) containing the compound of the present invention, the resulting mixture was incubated at room temperature for 20 minutes. A substrate mixture (5 μL) of biotinylated ATF2 of 5 μg/mL (Upstate Biotechnology #14-432), adenosine triphosphate (90 μmol/L) (Sigma #FL-AAS) and anti-phosphorylated ATF2 antibody (20-fold dilution) (Cell Signaling Technology #9221L) prepared separately was added thereto, and enzyme reaction was carried out at 30° C. for 30 minutes. After the reaction, Hepes buffer (5 μL) containing 0.25% BSA and 100 mM EDTA was added to stop the enzyme reaction. The amount of a complex of the phosphorylated ATF2 and anti-phosphorylated ATF2 antibody produced by the reaction was measured using an Alpha Screenm Rabbit Detection kit (Packard #6760607).
The p38α MAP kinase inhibitory activity, which is the effect of the compound of the present invention, was calculated as an inhibition rate (%) according to the following equation:
(§1) Inhibition rate (%)={(AC−AX)/(AC−AB)}×100
Inhibition rate of compounds with each concentration was calculated, and a value indicating 50% inhibition (IC50) was determined from the inhibition curve.

[2] = system: TNF-α production induced by lipopolysaccharide (LPS); assay: Rat cytokine-production model (LPS-induced TNF-α in plasma); type: in vivo; conditions: dose of 3 mg/kg orally, LPS 10 μg/kg intravenously after 2 hours, plasma 90 minutes after LPS
Experimental: The in vivo effect of the compound of the present invention was studied on TNF-α production induced by lipopolysaccharide (LPS) in rats.
A vehicle containing the compound of the present invention was orally administered to male Lew […] (Charles River Japan, Inc.), and after 2 hours, lipopolysaccharide (LPS, 055:B5, Difco) was intravenously administered at the dose of 10 μg/kg (5 animals/group). Only a vehicle was orally administered to a control group (5 animals). Ninety minutes after the LPS treatment, heparinized blood collection was performed via the abdominal cava vein under anesthesia with ether, and blood plasma was obtained by centrifugation (12,000 rpm, 3 minutes, 4° C.). The obtained blood plasma sample was stored at −80° C. until it was used. TNF-α in the blood plasma was measured using an ELISA kit from Genzyme/Techne (#10516).
The inhibitory activity of the compound of the present invention against TNF-α production was calculated as an inhibition rate (%) according to the following equation:
Inhibition rate (%)={(AC−AX)/A^C}×100

[3] = system: TNF-α production, THP-1 human monocyte cell line; assay: Inhibitory activity against TNF-α production using human cell lines (LPS-stimulated THP-1); type: cell-based; conditions: 1.5 h, THP-1 cells, LPS stimulation, 90 minutes
Experimental: Using THP-1 which is a human monocyte cell line, the inhibitory effect of the compound of the present invention against TNF-α production stimulated by lipopolysaccharide (LPS) was studied.
Each 50 μL of lipopolysaccharide (LPS; Difco #3120-25-0) prepared to a concentration of 40 ng/mL using RPMI-1640 medium containing 10% fetal calf serum (hereinafter abbreviated to RPMI-1640) and RPMI-1640 containing the compound of the present invention was added to a 96-well plate for cell culture. One hundred μL of the cell suspension of THP-1 (Dainippon Pharmaceutical Co., Ltd, #06-202) prepared to a cell density of 2×10^6 cells/mL using RPMI-1640 was added and cultured for 90 minutes at 37° C. in an incubator (5% CO2, 95% air). After completion of the reaction, the culture medium supernatant was recovered and the amount of produced TNF-α was measured using an ELISA kit (Invitrogen, #850090192).
The inhibitory activity against TNF-α production, which is the effect of the compound of the present invention, was calculated as an inhibition rate (%) by the following equation:
as §1
AX is a measured value with LPS induction in the presence of a test compound. Inhibition rate of compounds with each concentration was calculated, and a value indicating 50% inhibition (IC50) was determined from the inhibition curve.

Chain of recombinant human p38α MAP kinase (Q16539 whole entry): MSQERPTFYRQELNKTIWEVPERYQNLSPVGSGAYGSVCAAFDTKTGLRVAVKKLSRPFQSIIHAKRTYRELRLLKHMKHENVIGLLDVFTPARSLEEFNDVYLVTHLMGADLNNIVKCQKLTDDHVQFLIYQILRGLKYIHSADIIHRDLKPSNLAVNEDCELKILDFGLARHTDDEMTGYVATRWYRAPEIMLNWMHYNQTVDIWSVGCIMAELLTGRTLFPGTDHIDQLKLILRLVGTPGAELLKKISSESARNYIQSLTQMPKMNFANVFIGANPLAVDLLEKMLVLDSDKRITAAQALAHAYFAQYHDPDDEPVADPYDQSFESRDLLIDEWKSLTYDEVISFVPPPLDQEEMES

Structure (SMILES)	IC50 [1] [nM]	inhibition against in vivo TNF-α production induced by LPS stimulation [2] [%]	IC50 [3] [nM]
O=c1ccc(C(=NO)c2ccc(F)cc2F)cn1-c1c(Cl)cccc1Cl [Example 7, 1-(2,6-dichlorophenyl)-5-[(2,4-difluorophenyl)(hydroxyimino)methyl]pyridin-2(1H)-one]	4.9		
Cc1cc(F)cc(C)c1-n1cc(/C(=N/OC2CCN(C)CC2)c2ccc(F)cc2F)ccc1=O [Example 48, 5-((Z)-(2,4-difluorophenyl) {[(1-methyl-4-piperidinyl)oxy]iimino}methyl)-1-(4-fluoro-2,6-dimethylphenyl)-2(1H)-pyridinone]	34	72	2.4
Cc1cc(C)c(-n2cc(C(=NOC3CCN(C)CC3)c3ccc(F)cc3F)ccc2=O)c(C)c1 [Example 52(9), 5-((2,4-difluorophenyl){[(1-methyl-4-piperidinyl)oxy]imino}methyl)-1-mesityl-2(1H)-pyridinone]	20.5	72	7.1
